pIC50: −log10 of the molar value.

A word on the logD: it is the decadic logarithm of the distribution of all forms, ionised or not, between an organic phase and buffer at a given pH. Broadly, the pIC50 is the IC50 on a negative log10 scale, so that one unit is a factor of ten.

The target in series [1] is PDE4D (Homo sapiens, UniProt Q08499). Kind of series: PET imaging in human brain. The class given is in vivo. As to conditions: po, read-out: occupancy of the target enzyme.
For series [2], the system named is PDE4D. Kind of series: PET imaging in monkey brain, baseline and preblock. It counts as in vivo, rhesus monkeys (Macaca mulatta).
Series [3] can be described thus: Mouse iv cassette pharmacokinetics, brain uptake. It counts as in vivo, CD1 mice. The following applies: intravenous dosing; SUV = brain Cmax (ng/mL)/dose (mg/kg)/1000.
A short description of series [4]: Radioligand lipophilicity. The class given is physicochemical. The following applies: n-octanol/sodium phosphate buffer, pH 7.4.
Another series deals with PDE4B1 (S133D) (Homo sapiens, UniProt Q07343, S133D/S659A/S661A). The series is described as follows: PDE4 enzyme inhibition assay, counter-screen. The class given is biochemical. In general terms: The purpose of a counterscreen is to sort out artefacts and off-target activity.
Sequence of PDE4B1 (S133D) (Q07343 whole entry S133D/S659A/S661A): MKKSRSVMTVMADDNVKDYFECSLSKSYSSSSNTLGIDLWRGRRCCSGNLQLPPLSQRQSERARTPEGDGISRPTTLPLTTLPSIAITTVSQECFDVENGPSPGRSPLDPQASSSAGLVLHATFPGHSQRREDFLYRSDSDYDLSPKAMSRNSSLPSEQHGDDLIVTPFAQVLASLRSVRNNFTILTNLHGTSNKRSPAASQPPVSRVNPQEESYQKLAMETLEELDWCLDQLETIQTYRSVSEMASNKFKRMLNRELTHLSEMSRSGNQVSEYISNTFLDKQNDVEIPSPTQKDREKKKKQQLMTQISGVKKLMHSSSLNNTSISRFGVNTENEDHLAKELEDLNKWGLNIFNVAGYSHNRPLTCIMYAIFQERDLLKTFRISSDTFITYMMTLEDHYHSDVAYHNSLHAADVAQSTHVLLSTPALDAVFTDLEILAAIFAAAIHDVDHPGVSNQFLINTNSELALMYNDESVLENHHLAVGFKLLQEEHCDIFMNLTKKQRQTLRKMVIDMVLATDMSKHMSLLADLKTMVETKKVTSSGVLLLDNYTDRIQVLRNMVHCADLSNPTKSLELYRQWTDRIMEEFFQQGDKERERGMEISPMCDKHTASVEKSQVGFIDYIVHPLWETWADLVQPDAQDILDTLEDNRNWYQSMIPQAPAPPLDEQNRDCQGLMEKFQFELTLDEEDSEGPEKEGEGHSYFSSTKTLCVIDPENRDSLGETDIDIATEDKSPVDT
The target of another series is Human PDE4D7* (S129D) (Homo sapiens, UniProt Q08499, S190D/S715A/S717A). Kind of series: PDE4 enzyme inhibition assay.
Sequence of Human PDE4D7* (S129D) (Q08499 1-748 isoform Q08499-11 S129D/S654A/S656A): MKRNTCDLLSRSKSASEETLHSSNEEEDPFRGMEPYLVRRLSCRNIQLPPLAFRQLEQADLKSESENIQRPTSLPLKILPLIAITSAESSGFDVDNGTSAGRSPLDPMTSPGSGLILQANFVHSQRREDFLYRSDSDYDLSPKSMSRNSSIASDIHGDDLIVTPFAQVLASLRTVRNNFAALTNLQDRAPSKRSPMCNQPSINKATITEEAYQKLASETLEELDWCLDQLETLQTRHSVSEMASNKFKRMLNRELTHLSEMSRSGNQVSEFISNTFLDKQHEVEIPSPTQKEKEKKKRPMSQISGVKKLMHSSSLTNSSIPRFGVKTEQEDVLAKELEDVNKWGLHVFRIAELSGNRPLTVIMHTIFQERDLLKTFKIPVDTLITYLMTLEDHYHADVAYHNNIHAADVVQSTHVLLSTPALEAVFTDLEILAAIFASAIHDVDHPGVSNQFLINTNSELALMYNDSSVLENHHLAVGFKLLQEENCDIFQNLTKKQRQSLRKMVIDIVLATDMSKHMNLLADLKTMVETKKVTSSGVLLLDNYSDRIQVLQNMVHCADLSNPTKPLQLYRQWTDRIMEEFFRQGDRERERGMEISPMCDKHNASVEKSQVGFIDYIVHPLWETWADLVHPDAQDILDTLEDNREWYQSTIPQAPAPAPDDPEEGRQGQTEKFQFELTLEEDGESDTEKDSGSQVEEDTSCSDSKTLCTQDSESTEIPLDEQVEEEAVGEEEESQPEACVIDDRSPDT
Series [5] relates to panel of GPCRs and other binding sites. The series is described as follows: NIMH Psychoactive Drug Screening Panel.
Series [6] concerns the target serotonin 5-HT2B receptor (Homo sapiens, UniProt P41595). Kind of series: NIMH Psychoactive Drug Screening Panel, hit. It counts as binding.

Sequence of serotonin 5-HT2B receptor (P41595 whole entry): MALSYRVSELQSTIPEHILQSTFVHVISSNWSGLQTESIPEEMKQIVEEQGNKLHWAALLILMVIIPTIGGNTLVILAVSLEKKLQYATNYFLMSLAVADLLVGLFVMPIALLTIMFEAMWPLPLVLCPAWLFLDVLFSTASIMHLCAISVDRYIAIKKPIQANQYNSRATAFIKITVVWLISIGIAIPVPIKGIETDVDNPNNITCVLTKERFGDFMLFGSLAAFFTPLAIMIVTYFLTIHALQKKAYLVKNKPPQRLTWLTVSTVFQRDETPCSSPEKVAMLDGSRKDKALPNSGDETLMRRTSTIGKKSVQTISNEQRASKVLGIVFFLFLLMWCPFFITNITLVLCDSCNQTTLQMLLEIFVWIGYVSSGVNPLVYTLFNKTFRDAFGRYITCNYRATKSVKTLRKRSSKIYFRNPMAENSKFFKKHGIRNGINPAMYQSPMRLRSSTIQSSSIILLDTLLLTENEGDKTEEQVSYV
Sequence of PDE4D (Homo sapiens, UniProt Q08499) (Q08499 307-809 limits assumed): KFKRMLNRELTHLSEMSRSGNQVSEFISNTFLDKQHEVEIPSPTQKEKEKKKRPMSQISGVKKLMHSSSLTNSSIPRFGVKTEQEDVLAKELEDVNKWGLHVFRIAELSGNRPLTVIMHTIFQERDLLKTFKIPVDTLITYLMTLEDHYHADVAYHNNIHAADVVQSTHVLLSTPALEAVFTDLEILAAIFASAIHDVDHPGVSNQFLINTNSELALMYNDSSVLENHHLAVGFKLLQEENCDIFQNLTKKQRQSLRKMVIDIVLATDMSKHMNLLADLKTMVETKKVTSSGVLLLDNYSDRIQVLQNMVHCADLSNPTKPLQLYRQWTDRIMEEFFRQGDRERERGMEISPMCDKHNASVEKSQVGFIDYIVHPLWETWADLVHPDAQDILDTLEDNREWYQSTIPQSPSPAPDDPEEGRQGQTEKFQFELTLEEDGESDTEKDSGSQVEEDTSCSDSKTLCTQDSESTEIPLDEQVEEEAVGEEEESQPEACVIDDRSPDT

In the case of `O=C(O)Cc1ccc(Cc2cc(-c3cccc(Cl)c3)nc(C(F)(F)F)c2)cc1` [BPN14770], the receptor occupancy at 50 mg at PDE4D [1] is ~40%. Further, the “PDE4D target occupancy (Lassen plot)” value with PDE4D [2] (radioligand [11C]T1650, blocking dose 3 mg/kg i.v.) was determined as 63%.

On to `COc1ccc(Cc2ccncc2)nc1-c1cccc(Cl)c1` [Compound 3, 2-(3-chlorophenyl)-3-methoxy-6-[(pyridin-4-yl)methyl]pyridine], for which the “SUV, brain uptake in mice” value in series [3] was 0.94 SUV. This compound also yielded a logD in series [4] of 3.45. Besides, the pIC50 against PDE4B1 (S133D) was 6.14.

Turning to `Cn1cc(Cc2ccc(OC(F)F)c(-c3cccc(Cl)c3)n2)cn1` [Compound 4, 2-(3-chlorophenyl)-3-(difluoromethoxy)-6-[(1-methyl-1H-pyrazol-4-yl)methyl]pyridine], the “SUV, brain uptake in mice” value in series [3] turned out to be 1.44 SUV. Also, the logD in series [4] amounted to 3.07. Besides, the pIC50 against Human PDE4D7* (S129D) was 9.30; against PDE4B1 (S133D), 6.07.

Turning to `COc1ccc(Cc2ccncc2)nc1-c1cccc([N+](=O)[O-])c1` [Compound 5, 3-methoxy-2-(3-nitrophenyl)-6-[(pyridin-4-yl)methyl]pyridine], the “SUV, brain uptake in mice” value in series [3] was 1.76 SUV. For the same compound, the logD in series [4] is 3.38. On PDE4B1 (S133D), the pIC50 was 6.55.

For `COc1ccc(Cc2cn[nH]c2)nc1-c1cccc([N+](=O)[O-])c1` [Compound 6], the off-target binding activity entry in series [5] is listed as “did not reveal significant off-target binding activity”. The “SUV, brain uptake in mice” value in series [3] stood at 1.76 SUV. Further, the logD in series [4] is 2.89. In addition, the pIC50 at PDE4B1 (S133D) is 5.95; in series [6] it was 6.12.

In the case of `COc1ccc(C2CNC(=O)C2)cc1OC1CCCC1` (centres unmarked) [rolipram], the “PDE4D target occupancy (Lassen plot)” value in the series with PDE4D [2] (radioligand [11C]T1650, blocking dose 0.2 mg/kg i.v.) turned out to be 63%; with PDE4D [2] (radioligand [11C]T1650, blocking dose 1.0 mg/kg i.v.), 93%; with PDE4D [2] (radioligand [11C]T1660, rolipram 1.0 mg/kg i.v.), 79%.
